Measurements: ChEMBL document CHEMBL4507319 (2021)

Assays:
Conditions in all cases: Compound concentration 1.0 uM
[1] = molecular target: CDK7/Cyclin H/MNAT1 (Homo sapiens) (UniProt P51946+P50613+P51948); experiment: CDK7/cyclinH/MAT1(h) Eurofins kinase panel; format: protein-complex assay
[2] = molecular target: Epithelial discoidin domain-containing receptor 1 (Homo sapiens) (UniProt Q08345); experiment: DDR1(h) Eurofins kinase panel
[3] = molecular target: T1, Myotonin-protein kinase (Homo sapiens) (UniProt Q09013); experiment: DMPK(h) Eurofins kinase panel
T1 sequence (whole entry): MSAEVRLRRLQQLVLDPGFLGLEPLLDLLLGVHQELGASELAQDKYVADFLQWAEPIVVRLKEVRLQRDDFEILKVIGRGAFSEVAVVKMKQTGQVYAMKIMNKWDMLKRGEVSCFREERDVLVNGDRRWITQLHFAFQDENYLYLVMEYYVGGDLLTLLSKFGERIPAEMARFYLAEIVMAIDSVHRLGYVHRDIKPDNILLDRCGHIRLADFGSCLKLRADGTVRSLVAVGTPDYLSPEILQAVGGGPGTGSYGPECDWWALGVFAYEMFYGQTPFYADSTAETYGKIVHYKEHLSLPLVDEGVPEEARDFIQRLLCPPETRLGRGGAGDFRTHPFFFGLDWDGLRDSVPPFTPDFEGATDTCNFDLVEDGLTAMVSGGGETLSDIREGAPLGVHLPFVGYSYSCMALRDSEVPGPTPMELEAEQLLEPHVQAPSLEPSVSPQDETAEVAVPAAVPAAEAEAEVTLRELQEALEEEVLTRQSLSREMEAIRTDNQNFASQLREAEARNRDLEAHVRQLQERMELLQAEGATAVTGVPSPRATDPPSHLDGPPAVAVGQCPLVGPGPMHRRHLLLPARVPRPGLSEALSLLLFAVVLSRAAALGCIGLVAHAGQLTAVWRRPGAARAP

[4] = molecular target: T2, Ephrin type-B receptor 3 (Homo sapiens) (UniProt P54753); experiment: EphB3(h) Eurofins kinase panel
T2 sequence (whole entry): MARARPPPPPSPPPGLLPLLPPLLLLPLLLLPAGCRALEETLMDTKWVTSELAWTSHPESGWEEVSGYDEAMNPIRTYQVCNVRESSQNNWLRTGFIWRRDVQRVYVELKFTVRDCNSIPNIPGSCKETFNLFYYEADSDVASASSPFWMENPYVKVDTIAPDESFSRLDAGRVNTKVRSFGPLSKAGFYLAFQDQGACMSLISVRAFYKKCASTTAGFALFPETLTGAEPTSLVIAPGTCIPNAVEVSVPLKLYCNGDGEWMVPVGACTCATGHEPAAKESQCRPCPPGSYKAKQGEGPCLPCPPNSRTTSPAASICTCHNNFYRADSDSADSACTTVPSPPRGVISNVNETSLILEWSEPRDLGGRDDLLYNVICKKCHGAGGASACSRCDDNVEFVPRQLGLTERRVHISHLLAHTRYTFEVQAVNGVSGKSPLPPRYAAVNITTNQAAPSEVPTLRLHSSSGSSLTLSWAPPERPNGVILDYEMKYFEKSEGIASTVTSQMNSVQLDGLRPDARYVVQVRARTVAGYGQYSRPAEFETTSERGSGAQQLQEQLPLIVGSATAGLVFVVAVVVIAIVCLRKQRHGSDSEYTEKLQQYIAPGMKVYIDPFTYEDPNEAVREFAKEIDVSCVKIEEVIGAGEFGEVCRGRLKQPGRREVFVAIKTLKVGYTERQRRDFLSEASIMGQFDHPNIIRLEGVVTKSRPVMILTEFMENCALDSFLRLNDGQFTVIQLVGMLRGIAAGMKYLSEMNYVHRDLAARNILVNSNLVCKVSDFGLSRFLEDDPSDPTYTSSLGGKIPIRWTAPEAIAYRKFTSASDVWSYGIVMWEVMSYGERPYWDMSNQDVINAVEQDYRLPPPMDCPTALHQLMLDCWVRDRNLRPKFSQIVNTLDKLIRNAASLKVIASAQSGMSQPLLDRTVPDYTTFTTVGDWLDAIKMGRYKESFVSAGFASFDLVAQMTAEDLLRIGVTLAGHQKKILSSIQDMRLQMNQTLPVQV

[5] = molecular target: Insulin receptor (Homo sapiens) (UniProt P06213); experiment: IR(h), activated Eurofins kinase panel
Sequence of Insulin receptor (Homo sapiens) (P06213 28-758 limits assumed): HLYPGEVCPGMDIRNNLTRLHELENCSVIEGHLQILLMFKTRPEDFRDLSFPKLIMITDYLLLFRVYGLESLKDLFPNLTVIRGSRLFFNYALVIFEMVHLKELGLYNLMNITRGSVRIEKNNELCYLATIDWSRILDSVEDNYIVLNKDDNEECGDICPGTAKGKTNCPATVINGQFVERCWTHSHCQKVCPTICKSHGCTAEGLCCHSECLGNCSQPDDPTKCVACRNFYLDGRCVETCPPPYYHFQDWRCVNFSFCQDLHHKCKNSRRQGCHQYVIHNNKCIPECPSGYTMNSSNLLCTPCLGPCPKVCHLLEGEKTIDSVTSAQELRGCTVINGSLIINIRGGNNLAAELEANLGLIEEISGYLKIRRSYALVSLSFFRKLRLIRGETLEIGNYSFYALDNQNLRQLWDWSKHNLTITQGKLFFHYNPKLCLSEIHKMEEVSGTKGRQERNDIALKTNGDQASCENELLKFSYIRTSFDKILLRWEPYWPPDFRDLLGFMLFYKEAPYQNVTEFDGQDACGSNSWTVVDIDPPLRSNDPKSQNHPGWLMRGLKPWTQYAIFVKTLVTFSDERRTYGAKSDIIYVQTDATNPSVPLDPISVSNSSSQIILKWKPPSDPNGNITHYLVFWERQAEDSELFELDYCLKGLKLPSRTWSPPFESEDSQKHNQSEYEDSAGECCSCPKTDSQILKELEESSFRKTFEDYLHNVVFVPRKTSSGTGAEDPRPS
Sequence of Insulin receptor (Homo sapiens) (P06213 763-1382 limits assumed): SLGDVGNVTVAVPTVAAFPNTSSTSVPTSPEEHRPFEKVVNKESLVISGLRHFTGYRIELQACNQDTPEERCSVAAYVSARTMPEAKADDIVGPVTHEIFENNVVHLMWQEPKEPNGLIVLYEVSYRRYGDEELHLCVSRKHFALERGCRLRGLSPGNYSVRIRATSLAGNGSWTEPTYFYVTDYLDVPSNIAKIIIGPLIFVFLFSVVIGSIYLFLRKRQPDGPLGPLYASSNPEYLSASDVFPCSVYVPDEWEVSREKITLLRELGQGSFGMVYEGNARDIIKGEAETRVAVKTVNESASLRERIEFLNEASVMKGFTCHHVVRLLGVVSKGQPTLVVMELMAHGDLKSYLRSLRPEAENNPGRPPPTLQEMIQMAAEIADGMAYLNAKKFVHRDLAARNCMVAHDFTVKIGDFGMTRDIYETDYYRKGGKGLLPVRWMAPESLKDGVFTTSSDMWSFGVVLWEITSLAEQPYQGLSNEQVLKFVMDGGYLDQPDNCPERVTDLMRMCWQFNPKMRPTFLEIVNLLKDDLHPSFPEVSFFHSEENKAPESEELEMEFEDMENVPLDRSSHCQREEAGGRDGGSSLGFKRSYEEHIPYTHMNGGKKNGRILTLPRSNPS

[6] = molecular target: T3, Tyrosine-protein kinase ITK/TSK (Homo sapiens) (UniProt Q08881); experiment: Itk(h) Eurofins kinase panel
T3 sequence (whole entry): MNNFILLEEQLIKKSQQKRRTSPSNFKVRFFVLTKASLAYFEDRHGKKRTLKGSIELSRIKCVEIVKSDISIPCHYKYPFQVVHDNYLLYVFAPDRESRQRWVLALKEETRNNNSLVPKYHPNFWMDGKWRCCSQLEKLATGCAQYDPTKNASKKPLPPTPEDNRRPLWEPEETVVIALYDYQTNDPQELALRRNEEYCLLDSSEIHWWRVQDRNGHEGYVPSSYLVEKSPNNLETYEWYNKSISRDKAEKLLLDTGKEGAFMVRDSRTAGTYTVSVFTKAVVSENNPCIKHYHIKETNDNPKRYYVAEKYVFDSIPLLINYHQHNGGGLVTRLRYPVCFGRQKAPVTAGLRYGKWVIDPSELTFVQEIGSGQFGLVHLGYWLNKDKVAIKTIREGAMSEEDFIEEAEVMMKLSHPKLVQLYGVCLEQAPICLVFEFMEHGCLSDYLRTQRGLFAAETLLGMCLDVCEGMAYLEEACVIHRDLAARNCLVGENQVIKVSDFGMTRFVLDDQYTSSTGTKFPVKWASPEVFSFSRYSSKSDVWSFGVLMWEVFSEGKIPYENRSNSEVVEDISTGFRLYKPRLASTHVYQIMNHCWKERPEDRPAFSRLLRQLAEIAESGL

[7] = molecular target: SRSF protein kinase 1 (Homo sapiens) (UniProt Q96SB4); experiment: SRPK1(h) Eurofins kinase panel
Sequence of SRSF protein kinase 1 (Homo sapiens) (Q96SB4 whole entry): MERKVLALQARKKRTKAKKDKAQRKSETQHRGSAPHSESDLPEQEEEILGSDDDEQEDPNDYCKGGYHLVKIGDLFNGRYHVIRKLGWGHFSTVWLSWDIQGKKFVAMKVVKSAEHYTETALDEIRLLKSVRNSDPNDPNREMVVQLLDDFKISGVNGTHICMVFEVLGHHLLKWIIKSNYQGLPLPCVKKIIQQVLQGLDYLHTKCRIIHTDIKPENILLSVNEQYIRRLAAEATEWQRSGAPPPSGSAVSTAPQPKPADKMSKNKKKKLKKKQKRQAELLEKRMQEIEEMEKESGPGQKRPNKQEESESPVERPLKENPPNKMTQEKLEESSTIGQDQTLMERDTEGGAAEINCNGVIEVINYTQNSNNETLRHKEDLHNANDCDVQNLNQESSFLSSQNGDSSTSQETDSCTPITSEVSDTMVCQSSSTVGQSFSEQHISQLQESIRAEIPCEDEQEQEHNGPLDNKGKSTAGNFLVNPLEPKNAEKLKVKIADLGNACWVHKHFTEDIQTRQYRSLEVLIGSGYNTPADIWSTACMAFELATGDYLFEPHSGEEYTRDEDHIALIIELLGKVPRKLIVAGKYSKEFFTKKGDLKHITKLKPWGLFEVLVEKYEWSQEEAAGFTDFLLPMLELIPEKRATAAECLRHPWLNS

[8] = molecular target: Angiopoietin-1 receptor (Homo sapiens) (UniProt Q02763); experiment: Tie2 (h) Eurofins kinase panel
Sequence of Angiopoietin-1 receptor (Homo sapiens) (Q02763 whole entry): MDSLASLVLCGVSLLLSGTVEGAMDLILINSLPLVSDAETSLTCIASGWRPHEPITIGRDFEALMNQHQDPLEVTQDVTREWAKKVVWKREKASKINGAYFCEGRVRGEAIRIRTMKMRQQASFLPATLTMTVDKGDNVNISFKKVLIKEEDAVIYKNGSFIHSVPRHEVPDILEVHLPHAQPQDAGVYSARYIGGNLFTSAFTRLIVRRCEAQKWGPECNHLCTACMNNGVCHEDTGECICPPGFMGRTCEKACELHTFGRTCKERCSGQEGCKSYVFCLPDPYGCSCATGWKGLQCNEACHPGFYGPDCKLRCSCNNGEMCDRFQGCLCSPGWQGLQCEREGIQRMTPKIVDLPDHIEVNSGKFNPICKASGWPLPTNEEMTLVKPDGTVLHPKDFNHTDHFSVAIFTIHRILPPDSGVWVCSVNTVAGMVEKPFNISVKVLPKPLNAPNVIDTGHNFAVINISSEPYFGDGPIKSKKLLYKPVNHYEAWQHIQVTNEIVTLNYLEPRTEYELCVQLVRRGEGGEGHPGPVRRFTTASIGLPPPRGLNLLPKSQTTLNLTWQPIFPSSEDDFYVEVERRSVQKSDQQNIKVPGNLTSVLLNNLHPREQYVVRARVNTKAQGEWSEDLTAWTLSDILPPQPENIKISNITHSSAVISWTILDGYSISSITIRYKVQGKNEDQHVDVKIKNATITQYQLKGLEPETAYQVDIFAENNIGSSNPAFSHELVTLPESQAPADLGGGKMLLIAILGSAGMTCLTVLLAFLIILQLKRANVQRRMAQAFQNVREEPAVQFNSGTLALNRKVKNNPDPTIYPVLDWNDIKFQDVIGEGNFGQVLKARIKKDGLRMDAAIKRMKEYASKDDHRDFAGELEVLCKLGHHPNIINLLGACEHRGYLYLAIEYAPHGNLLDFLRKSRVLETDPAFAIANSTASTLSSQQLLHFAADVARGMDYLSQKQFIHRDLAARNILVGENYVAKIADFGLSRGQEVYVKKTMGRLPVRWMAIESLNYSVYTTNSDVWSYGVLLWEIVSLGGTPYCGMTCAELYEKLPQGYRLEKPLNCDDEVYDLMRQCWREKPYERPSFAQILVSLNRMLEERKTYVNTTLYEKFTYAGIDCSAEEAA

[9] = molecular target: Serine/threonine-protein kinase WNK3 (Homo sapiens) (UniProt Q9BYP7); experiment: WNK3(h) Eurofins kinase panel
[10] = molecular target: Phosphatidylinositol 4-phosphate 5-kinase type-1 alpha (Homo sapiens) (UniProt Q99755); experiment: PIP5K1a(h) Eurofins kinase panel
Sequence of Phosphatidylinositol 4-phosphate 5-kinase type-1 alpha (Homo sapiens) (Q99755 whole entry): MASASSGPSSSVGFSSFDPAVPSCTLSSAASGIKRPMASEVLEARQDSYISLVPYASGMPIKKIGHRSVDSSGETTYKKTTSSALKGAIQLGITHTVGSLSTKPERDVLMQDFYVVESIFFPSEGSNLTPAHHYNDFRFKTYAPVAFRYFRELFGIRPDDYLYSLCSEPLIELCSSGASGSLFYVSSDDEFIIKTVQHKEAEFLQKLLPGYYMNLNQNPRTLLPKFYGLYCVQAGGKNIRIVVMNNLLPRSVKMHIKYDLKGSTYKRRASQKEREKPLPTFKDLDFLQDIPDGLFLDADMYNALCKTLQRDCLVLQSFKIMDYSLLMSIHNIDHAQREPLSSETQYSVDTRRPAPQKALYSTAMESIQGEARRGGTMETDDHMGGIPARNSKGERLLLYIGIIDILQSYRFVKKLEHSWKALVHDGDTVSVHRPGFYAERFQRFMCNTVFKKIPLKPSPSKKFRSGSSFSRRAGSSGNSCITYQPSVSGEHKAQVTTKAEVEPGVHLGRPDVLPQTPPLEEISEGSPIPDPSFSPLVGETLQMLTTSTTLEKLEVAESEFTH

Measured: % residual kinase activity

Sequence of Epithelial discoidin domain-containing receptor 1 (Homo sapiens) (Q08345 whole entry, the tested form may be a part): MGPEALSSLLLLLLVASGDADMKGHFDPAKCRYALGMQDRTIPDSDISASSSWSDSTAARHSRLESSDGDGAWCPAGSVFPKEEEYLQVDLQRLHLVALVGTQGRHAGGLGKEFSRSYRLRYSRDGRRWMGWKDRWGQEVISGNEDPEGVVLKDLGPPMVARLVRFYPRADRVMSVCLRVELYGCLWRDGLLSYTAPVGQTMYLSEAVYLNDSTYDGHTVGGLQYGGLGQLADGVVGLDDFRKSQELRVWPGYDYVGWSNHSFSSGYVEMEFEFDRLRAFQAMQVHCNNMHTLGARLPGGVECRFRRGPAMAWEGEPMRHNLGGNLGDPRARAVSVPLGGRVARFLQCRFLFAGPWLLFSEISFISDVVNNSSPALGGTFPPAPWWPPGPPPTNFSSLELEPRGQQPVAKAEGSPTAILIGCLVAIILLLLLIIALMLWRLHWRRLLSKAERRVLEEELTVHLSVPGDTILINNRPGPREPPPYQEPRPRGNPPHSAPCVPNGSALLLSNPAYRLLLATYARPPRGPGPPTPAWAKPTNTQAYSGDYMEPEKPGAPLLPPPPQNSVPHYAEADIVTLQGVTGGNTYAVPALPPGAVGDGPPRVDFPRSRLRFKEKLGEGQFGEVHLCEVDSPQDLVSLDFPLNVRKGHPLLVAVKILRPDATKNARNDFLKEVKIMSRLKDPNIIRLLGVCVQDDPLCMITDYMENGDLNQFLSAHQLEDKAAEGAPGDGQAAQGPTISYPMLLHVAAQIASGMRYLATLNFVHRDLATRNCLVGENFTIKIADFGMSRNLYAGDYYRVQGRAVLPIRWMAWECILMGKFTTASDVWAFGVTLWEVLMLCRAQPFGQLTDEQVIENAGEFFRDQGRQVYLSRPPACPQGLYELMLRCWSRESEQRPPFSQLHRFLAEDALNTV

CCc1ccccc1C(=O)Nc1n[nH]c2c(C)c(F)c(C3C(C#N)=C(C)N(C)C(C)=C3C#N)cc12 [BAY-3827]
inactive: [1] 66% | [2] 32% | [3] 91% | [4] 109% | [5] 89% | [6] 106% | [7] 84% | [8] 81% | [9] 103% | [10] 100%
